Results: PubChem BioAssay (NCI)
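Briefly, cells in 96-well plates were exposed to five compound concentrations for 48 h, and endpoints were estimated by linear interpolation. TGI marks complete inhibition of growth.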

How the values were obtained:
Test in all cases: growth of human tumour cells (NCI), 48 h
[1] = tested on: NCI-H460 lung
[2] = tested on: RPMI-8226 leukemia
[3] = tested on: DU-145 prostate
[4] = tested on: SW-620 colon
[5] = tested on: SF-268 CNS

Measured: TGI

CCOC(=O)c1c(-c2ccc(O)c(OC)c2)c(C#N)c(=S)n(C2OC(COC(C)=O)C(OC(C)=O)C(OC(C)=O)C2OC(C)=O)c1-c1ccccc1 (stereo not given)
> 100 µM: all assays above

COc1c2ccccc2c(OC)c2nc(C)ccc12
> 100 µM: all assays above

O=c1oc2ccccc2c(O)c1C(c1ccc(/C=C/c2ccccc2)cc1)c1c(O)c2ccccc2oc1=O
55.9 µM: [1]
64.9 µM: [5]
> 100 µM: all other assays above

O=c1[nH]nc(Cc2ccccc2)n1/N=C/c1ccccc1Cl
> 100 µM: all assays above

CC/C=C/C(=O)CC(O)(C(F)(F)F)C(F)(F)F
> 100 µM: all assays above

CC1=NN(c2nc(N)nc(CSCc3nc(N)nc(N(C)C)n3)n2)C(C)(C)C1
> 100 µM: all assays above

C[C@H]1C[C@H](C)c2ccccc2N(C)C1=Nc1ccccc1
64.4 µM: [1]
> 100 µM: all other assays above

CC1=C(C(=O)NCCc2ccccc2)CC(C(=O)NCCc2ccccc2)=C(C)N1
> 100 µM: all assays above

CCOC(=O)/C(C#N)=C1\c2c([nH]c(=S)[nH]c2=O)Oc2ccc3ccccc3c21
12.2 µM: [4]
> 100 µM: all other assays above

OC(C/C(=N\N1CCCCC1)c1cccs1)(C(F)(F)F)C(F)(F)F
> 10 µM: all assays above

CC(=O)OCC1OC(N2C(C)=C(C(C)=O)C(c3ccco3)C(C#N)=C2S)C(OC(C)=O)C(OC(C)=O)C1OC(C)=O (stereo not given)
> 100 µM: all assays above

O=C(O)c1ccc(Nc2nc3ccccc3nc2-c2cccs2)cc1
> 100 µM: all assays above

CC(=O)NC1C(O)C(O)C(CO)OC1n1ncc(=O)[nH]c1=O (stereo not given)
> 100 µM: all assays above

CNn1c(C)n[nH]c1=O
> 100 µM: all assays above

Cc1nn(-c2ccccc2)c2[nH]c(=S)cnc12
> 100 µM: all assays above

CCCCC(=O)NC1(c2cc3ccccc3s2)CCCCC1
> 100 µM: all assays above

O=c1cc(CBr)c2ccc(O)cc2o1
> 100 µM: all assays above

CCOC(=O)[C@@H]1ON2O[C@H](OC3CCCC3(c3ccccc3)c3ccccc3)C[C@H]3OC(=O)[C@@H]1C32 (stereo not given in full)
> 100 µM: all assays above

Cc1cccc(C)c1NC(=S)NC=C(C(N)=O)C(N)=O
> 100 µM: all assays above

c1ccc(Nc2nnc(Cn3ccc4ccccc43)s2)cc1
> 100 µM: all assays above

COc1ccc(-c2c(CN3CCOCC3)sc3nc4ccccc4n23)cc1
98.2 µM: [5]
53.5 µM: [1]
> 100 µM: [3] | [4]
23.4 µM: [2]

NC1=NN(c2ccccc2)C2(O)c3ccncc3C3=NN(c4ccccc4)C(=O)C132 (stereo not given)
> 100 µM: all assays above

CC(=O)OC1COC(n2c(-c3ccc(Cl)cc3)cc(-c3ccccc3)c(C#N)c2=S)C(OC(C)=O)C1OC(C)=O (stereo not given)
> 66.8 µM: [1]
41.6 µM: [3]
> 100 µM: [2] | [4]
> 39.3 µM: [5]

[O-][n+]1onc(-c2ccccc2)c1CN1CCOCC1
> 100 µM: all assays above
